Experimental data published in ChEMBL document CHEMBL1201862, “PubChem BioAssay data set” (2004).
Active and inactive are the calls of the source.

Tests used:
[1] = molecular target: T1, Calpain-2 catalytic subunit (Sus scrofa, UniProt P43367); experiment: m-calpain protease blockers, concentration series – biochemical, fluorogenic peptide substrate, dose response (AID 1420); assay type: functional
T1 sequence (P43367 whole entry): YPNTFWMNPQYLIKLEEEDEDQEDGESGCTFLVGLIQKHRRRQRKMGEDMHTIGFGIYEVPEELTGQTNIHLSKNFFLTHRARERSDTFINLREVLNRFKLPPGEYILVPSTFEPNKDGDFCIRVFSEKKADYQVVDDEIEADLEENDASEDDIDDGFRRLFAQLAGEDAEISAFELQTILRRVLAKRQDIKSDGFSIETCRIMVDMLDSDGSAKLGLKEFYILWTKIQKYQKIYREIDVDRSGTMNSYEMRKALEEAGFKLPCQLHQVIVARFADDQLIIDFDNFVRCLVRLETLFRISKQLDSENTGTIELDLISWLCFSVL

[2] = molecular target: T2, Methionyl-tRNA synthetase, putative (Trypanosoma brucei brucei, UniProt Q38C91); assay type: functional, Trypanosoma brucei brucei strain 927/4 GUTat10.1
T2 sequence (Q38C91 whole entry): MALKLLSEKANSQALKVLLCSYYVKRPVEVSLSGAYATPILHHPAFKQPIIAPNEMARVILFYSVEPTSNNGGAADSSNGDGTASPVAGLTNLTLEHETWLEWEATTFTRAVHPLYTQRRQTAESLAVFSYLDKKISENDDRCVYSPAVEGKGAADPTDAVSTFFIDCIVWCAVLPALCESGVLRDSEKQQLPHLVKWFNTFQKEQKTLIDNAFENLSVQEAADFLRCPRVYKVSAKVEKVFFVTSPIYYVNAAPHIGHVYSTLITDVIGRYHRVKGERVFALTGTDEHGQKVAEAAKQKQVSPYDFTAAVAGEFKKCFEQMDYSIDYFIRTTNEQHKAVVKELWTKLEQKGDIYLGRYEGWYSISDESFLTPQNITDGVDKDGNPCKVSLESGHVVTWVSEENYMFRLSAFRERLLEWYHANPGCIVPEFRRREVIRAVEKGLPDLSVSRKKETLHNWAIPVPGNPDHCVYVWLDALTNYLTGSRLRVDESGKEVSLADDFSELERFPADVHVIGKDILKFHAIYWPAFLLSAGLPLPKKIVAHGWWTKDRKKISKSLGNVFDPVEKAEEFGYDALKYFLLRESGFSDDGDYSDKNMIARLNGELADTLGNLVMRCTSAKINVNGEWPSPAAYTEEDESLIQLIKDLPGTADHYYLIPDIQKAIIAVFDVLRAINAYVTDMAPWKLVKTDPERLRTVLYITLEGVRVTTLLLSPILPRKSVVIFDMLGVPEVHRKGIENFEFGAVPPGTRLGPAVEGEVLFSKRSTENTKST

[3] = molecular target: T2, Methionyl-tRNA synthetase, putative; assay type: functional, Trypanosoma brucei brucei strain 927/4 GUTat10.1; remark: listed apart in the source
[4] = Counterscreen for inhibitors of Trypanosoma brucei methionyl tRNA synthetase (MetRS): Luminescence-based cell-based high throughput dose response assay to identify compounds that are cytotoxic to Jurkat human T lymphocyte cells.; assay type: functional
[5] = molecular target: DNA dC->dU-editing enzyme APOBEC-3G (Homo sapiens, UniProt Q9HC16); experiment: inhibition of APOBEC3G ssDNA deamination – biochemical, fluorescence, single-stranded DNA substrate, SAR follow-up (AID 602136); assay type: functional; settings: read-out: IC50_Mean
[6] = molecular target: DNA dC->dU-editing enzyme APOBEC-3A (Homo sapiens, UniProt P31941); experiment: SAR analysis of small molecule inhibitors of APOBEC3A DNA Deaminase via a fluorescence-based single-stranded DNA deaminase assay.; assay type: functional; settings: read-out: IC50_Mean
[7] = molecular target: T3, Polyadenylate-binding protein 1 (Homo sapiens, UniProt P11940); experiment: MLLE domain peptide-binding blockers, IC50 – biochemical, fluorescence polarization, FITC-PAM2 peptide, dose response (AID 602259); assay type: functional; settings: read-out: IC50_Mean
[8] = viability loss in THP-1 monocytes – THP-1 cells, cytotoxicity control for Vif-APOBEC3G degradation inhibitor project, dose response (AID 1117359); assay type: functional; settings: THP-1
[9] = molecular target: T3, Polyadenylate-binding protein 1; experiment: MLLE binding blockers, Cy5 peptide tracer – biochemical, fluorescence polarization, Cy5-PAM2 peptide, secondary, miRNA deadenylation inhibitor project, dose response (AID 602260); assay type: functional; settings: read-out: IC50_Mean
[10] = molecular target: Induced myeloid leukemia cell differentiation protein Mcl-1 (Homo sapiens, UniProt Q07820); assay type: functional
[11] = molecular target: T4, Apoptotic protease-activating factor 1 (Homo sapiens, UniProt O14727); assay type: functional
T4 sequence (O14727 whole entry): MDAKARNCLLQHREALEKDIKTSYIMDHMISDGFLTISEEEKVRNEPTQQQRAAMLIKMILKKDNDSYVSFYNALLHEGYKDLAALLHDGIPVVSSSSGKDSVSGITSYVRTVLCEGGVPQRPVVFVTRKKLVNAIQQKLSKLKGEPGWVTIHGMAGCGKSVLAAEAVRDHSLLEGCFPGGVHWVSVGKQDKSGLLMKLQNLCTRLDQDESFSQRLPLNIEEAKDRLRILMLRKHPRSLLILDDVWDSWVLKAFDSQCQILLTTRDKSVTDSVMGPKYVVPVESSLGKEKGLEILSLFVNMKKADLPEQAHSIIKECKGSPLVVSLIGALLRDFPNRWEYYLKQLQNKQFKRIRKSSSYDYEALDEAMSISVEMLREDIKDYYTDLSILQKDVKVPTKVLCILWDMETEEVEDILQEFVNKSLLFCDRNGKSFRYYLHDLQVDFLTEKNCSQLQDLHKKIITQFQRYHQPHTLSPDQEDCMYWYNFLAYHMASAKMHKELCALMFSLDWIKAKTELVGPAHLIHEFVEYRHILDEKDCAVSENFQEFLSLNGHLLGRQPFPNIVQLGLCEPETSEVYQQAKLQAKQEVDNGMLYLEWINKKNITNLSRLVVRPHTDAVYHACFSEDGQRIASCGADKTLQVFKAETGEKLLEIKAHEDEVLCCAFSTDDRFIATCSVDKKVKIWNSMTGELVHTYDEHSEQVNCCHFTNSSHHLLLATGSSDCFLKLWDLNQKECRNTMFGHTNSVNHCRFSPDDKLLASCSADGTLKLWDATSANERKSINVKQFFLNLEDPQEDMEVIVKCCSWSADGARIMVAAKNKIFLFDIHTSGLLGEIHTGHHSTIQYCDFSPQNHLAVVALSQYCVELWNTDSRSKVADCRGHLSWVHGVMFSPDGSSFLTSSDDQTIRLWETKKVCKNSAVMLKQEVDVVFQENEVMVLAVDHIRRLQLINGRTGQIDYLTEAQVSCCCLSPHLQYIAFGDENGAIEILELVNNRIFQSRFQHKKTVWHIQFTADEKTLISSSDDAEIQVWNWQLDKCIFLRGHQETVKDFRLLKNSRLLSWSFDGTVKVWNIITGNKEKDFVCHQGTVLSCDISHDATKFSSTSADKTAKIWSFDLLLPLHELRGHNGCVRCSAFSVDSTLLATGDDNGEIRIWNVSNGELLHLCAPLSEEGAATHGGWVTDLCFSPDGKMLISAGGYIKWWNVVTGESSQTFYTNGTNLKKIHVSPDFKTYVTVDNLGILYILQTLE

[12] = molecular target: T5, DNA repair and recombination protein RAD54-like (Homo sapiens, UniProt Q92698); experiment: RAD54 Holliday junction migration blockers – biochemical, fluorescence, cherry-picked samples, dose series, confirmation (AID 651657); assay type: functional
T5 sequence (Q92698 whole entry): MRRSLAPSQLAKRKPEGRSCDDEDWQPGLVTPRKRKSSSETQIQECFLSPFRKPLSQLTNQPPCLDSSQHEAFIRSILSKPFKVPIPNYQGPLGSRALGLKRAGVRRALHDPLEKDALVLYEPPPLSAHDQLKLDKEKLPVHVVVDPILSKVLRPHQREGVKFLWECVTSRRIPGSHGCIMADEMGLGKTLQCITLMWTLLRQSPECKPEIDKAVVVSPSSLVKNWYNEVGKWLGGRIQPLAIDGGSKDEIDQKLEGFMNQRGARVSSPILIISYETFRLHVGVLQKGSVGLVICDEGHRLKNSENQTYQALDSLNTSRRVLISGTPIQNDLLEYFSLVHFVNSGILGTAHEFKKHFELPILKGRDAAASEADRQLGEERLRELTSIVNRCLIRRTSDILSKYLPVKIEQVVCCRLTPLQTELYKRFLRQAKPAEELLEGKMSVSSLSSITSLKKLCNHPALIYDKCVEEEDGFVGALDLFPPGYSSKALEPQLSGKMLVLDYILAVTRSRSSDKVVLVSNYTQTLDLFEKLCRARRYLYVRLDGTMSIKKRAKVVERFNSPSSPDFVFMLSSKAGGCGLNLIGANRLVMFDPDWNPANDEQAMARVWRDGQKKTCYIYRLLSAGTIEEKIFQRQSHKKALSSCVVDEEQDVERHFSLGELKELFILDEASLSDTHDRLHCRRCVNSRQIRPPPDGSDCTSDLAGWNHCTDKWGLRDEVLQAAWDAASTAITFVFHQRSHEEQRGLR

[13] = molecular target: T6, DNA repair protein RAD52 homolog (Homo sapiens, UniProt P43351); assay type: functional, biochemical
T6 sequence (P43351 whole entry): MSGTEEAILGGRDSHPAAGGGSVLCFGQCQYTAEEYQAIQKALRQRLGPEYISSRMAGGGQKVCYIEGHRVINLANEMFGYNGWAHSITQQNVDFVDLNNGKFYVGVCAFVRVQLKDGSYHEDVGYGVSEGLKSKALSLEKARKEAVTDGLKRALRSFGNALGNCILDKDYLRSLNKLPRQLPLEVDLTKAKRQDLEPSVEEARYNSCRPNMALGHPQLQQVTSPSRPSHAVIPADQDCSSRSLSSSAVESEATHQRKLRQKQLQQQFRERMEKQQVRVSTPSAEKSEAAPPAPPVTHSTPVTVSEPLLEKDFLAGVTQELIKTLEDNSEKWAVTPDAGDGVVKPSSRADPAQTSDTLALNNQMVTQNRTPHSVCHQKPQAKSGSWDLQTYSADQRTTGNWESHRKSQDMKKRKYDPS

[14] = molecular target: Cytochrome P450 2C9 (Homo sapiens, UniProt P11712)
[15] = loss of viability in HepG2 cells – cell-based, CellTiter-Glo, cherry-picked, cytotoxicity control for Shn3 inhibitor project, dose response (AID 624134); assay type: functional
[16] = non-specific 3'UTR reporter inhibition in Clone20-Shn3RL – cell-based, Renilla luciferase, cherry-picked, counter-screen for Shn3 inhibitor project, dose response (AID 624133); assay type: functional
[17] = reduction of Shn3 3'UTR-driven luciferase in osteoblasts – cell-based, Clone20 osteoblasts, firefly luciferase, cherry-picked, dose response (AID 624132); assay type: functional;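 also: firefly luciferase luminescence from reporter carrying the Shn3 3'UTR in osteoblasts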
[18] = molecular target: T7, Streptokinase A (Streptococcus pyogenes serotype M1, UniProt P10520); experiment: viability-normalized secreted streptokinase activity reduction – plasminogen activation absorbance, OD405, dose response (AID 1914); assay type: functional, Streptococcus pyogenes M1 GAS;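 also: secreted streptokinase activity via plasminogen activation per viability signal from cell pellet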
T7 sequence (P10520 whole entry): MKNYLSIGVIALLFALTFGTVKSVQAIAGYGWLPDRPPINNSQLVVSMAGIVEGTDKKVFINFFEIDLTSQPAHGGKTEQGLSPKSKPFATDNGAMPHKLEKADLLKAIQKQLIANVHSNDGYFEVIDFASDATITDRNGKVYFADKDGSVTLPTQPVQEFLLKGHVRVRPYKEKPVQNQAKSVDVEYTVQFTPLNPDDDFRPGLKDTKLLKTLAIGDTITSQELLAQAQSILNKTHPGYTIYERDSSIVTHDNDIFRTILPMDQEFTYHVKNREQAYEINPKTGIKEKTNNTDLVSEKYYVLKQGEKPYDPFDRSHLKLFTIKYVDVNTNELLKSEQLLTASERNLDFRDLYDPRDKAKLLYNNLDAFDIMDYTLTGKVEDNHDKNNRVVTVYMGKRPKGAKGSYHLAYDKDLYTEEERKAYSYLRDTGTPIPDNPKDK

[19] = system: Streptococcus; experiment: GAS UMAA2166 growth inhibition – luminescence, BacTiterGlo, counter-screen for streptokinase expression inhibitor project, dose response (AID 1915); assay type: functional, organism-based;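 also: potency for reduction of bacterial viability or growth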
[20] = system: Streptococcus sp. 'group A'; experiment: Streptococcus pyogenes SK(-)GAS viability under kanamycin – luminescence, BacTiterGlo, confirmation, counter-screen for streptokinase expression inhibitor project, dose response (AID 1900); assay type: functional, organism-based

DNA dC->dU-editing enzyme APOBEC-3G, sequence (Q9HC16 whole entry): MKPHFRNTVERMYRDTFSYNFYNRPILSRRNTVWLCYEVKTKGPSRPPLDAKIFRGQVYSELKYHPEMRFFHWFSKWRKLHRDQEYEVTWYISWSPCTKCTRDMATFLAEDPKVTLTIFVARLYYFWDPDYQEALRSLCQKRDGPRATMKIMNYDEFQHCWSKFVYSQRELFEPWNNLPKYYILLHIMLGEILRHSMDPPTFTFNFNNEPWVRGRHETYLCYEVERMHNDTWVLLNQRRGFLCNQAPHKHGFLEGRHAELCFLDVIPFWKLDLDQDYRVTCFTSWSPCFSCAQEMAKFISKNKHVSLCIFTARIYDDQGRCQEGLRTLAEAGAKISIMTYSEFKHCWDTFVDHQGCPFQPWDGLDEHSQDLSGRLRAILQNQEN
T3 sequence (P11940 whole entry, the tested form may be a part): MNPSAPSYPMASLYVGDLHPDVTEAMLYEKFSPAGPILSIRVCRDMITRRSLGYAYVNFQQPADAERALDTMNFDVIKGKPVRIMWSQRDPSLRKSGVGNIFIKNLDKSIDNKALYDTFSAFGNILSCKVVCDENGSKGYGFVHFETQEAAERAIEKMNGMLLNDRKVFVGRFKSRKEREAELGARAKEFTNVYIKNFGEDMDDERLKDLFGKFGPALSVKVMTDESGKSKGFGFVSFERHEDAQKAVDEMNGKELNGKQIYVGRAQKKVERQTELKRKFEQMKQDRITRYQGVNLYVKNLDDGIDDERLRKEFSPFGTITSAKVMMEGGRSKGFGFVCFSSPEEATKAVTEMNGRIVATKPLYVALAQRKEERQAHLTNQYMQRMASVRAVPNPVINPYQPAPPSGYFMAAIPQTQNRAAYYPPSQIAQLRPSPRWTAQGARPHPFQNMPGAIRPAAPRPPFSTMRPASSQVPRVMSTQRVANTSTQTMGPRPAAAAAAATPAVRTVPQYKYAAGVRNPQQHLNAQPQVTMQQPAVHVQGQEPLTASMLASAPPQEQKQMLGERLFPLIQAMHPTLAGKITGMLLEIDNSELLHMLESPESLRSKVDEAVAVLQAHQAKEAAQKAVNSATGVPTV
DNA dC->dU-editing enzyme APOBEC-3A, sequence (P31941 whole entry, the tested form may be a part): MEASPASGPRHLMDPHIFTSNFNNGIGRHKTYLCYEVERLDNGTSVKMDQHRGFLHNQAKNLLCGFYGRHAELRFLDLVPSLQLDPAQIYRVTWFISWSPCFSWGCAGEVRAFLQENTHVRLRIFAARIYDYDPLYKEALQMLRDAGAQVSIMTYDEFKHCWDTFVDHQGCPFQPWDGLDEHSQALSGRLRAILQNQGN
Induced myeloid leukemia cell differentiation protein Mcl-1, sequence (Q07820 whole entry): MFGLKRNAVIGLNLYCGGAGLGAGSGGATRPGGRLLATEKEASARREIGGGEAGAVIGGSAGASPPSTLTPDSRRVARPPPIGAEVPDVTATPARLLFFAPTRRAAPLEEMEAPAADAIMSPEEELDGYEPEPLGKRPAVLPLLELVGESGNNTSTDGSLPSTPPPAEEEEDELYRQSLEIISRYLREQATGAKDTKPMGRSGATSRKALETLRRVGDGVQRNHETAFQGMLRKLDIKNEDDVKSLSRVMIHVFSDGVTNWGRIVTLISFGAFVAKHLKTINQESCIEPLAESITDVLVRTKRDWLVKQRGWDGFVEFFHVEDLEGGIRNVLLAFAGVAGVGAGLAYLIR
Cytochrome P450 2C9, sequence (P11712 whole entry): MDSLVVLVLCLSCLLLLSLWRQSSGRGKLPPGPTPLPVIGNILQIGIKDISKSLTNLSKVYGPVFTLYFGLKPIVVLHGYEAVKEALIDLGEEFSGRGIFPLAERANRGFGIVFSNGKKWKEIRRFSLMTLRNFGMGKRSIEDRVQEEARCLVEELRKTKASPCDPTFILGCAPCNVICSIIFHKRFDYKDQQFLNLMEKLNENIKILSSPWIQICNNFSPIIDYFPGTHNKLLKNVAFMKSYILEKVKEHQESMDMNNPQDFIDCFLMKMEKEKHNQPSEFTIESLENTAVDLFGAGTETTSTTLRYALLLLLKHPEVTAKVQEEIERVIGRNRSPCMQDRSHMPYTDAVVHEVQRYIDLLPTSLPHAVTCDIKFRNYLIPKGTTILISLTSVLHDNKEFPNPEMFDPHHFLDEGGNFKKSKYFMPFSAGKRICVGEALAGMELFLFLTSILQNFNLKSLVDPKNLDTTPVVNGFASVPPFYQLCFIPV

With `O=C(NCc1cccs1)c1cccc(Nc2nc3cc(Br)ccc3[nH]2)c1` the IC50 [1] was 11.1 µM (not active), the IC50 [2] was 38.7 µM (inactive) and the IC50 [3] was 31.3 µM (inactive). For the same compound, the IC50 [4] was 83.1 µM (inactive).

For `O=C(c1nn2c(C(F)(F)F)cc(-c3ccc(Cl)cc3)nc2c1Cl)N1CCCC1`, the IC50 [5] was > 99 µM (inactive) and the IC50 [6] was > 99 µM (inactive).

In the case of `COc1cc(CNc2[nH]cnc3c4cc(C)ccc4nc2-3)cc(OC)c1`, the IC50 [2] is reported as 2.32 µM (active), the IC50 [3] is reported as 1.46 µM (active) and the IC50 [4] is reported as 27.8 µM (inactive).

For `COc1ccc2c(c1)c1ccc3c(c1n2C)C(=O)C=CC3=O`, the IC50 [7] was 58.5 µM (inactive), the CC50 [8] was 18 µM (active) and the IC50 [9] was > 66 µM (inactive). The IC50 [10] was 0.946 µM (active) and the IC50 [11] was 19.3 µM (active).

For `Cc1cccn2c(=O)c3cc(C(=O)NCCN4CCOCC4)c(=N)n(CCN4CCOCC4)c3nc12`, the AC50 [12] was 15.9 µM (active) and the AC50 [13] was 13.7 µM (active).

With `COc1ccc(Nc2c3c(nc4ccc(C)cc24)CCC3)cc1` the AC50 [12] was 84.4 µM (active).

In the case of `C#CCSc1nnc(-c2cc3c(C(F)(F)F)nn(C)c3s2)n1C`, the IC50 [5] is reported as > 99 µM (inactive), the IC50 [6] is reported as > 99 µM (inactive) and the AC50 [14] is reported as “inconclusive”.

For `O=C(c1ccc(Cl)cc1)C1CCCN(Cc2cccc3ncccc23)C1` (centres undefined), the AC50 [15] was > 70 µM (inactive), the AC50 [16] was 7.83 µM (active) and the AC50 [17] was 4.52 µM (active).

For `S=C(NCc1cccs1)Nc1cc(Cl)cc(Cl)c1`, the EC50 [18] was > 150 µM (not active), the IC50 [2] was 24.6 µM (inactive) and the EC50 [19] was 13.7 µM (active). The EC50 [20] was 5.49 µM (active), the IC50 [3] was 104 µM (inactive) and the IC50 [4] was 34.5 µM (inactive).
